According to patent US10654867B2 (Genentech, Inc., priority 2016, dated 2020):

Legend:
[1] = molecular target: T1, estrogen receptor alpha (ESR1) in MCF7 breast cancer cells (Homo sapiens, UniProt P03372); experiment: Breast Cancer Cell ERa High Content Fluorescence Imaging Degradation Assay (ER-alpha MCF7 HCS); format: cell-based; design: MCF7 breast cancer cells were seeded on day 1 at a density of 10,000 cells per well; endogenous in cells; host or cells: MCF7 breast cancer cells; details: 4 hours, plateau of the maximal effect, DMSO and fulvestrant define 0% and 100% change in ESR1, Table 1b
T1 sequence (P03372 1-595): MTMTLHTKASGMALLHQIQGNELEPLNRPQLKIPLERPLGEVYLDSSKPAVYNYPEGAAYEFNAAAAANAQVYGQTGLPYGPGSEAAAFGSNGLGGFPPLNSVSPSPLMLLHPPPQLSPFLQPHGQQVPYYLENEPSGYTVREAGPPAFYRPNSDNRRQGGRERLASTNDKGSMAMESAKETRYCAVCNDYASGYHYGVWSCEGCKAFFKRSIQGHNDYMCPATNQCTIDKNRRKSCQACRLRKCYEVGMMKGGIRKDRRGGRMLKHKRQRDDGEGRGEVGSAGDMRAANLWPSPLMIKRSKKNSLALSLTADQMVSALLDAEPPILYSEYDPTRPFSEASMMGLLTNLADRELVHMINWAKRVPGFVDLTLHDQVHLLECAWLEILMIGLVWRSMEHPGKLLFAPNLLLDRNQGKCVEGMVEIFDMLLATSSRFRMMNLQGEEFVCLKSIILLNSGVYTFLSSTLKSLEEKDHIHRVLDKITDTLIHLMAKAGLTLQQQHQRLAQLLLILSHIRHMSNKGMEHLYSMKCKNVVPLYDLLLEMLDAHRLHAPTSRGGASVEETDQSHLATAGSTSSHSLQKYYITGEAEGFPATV
Protocol: All of the exemplary Formula I, II, and III compounds in Tables 1a and 1b were made and characterized by LCMS [M+H]^+ (liquid chromatography mass spectroscopy) with detection of parent ion. All of the exemplary Formula I, II, and III compounds in Tables 1a and 1b were tested for binding to ERa (Estrogen Receptor alpha) and biological activity according to the assays, protocols, and procedures of Examples 901-907. ER-alpha MCF7 HCS Sinf (%) values in Tables 1a and 1b were measured by the Breast Cancer Cell ERa High Content Fluorescence Imaging Degradation Assay of Example 901. ER-alpha MCF7 HCS EC50 (μM) values in Tables 1a and 1b were measured by the in vitro cell proliferation assays described in Examples 902 and 903. The rat uterine wet weight assays of Examples 906 and 907 allow rapid determination of compound antagonist activity in an ER responsive tissue (immature rat uterus) while competing against the native ER ligand estradiol, i.e. antagonist mode (Ashby, J.; et al (1997) Regulatory toxicology and pharmacology: RTP, 25 (3):226-31). […]
MCF7 breast cancer cells were seeded on day 1 at a density of 10,000 cells per well in 384 well poly-lysine coated tissue culture plate (Greiner # T-3101-4), in 50 μL/well RPMI (phenol red free), 10% FBS (Charcoal stripped), containing L-glutamine. […] Quantitative fluorescence imaging of ESR1 was carried out using a Cellomics Arrayscan V (Thermo). […]

[2] = molecular target: T1, estrogen receptor alpha (ESR1) in MCF7 breast cancer cells; experiment: as above; format: cell-based; design: endogenous in cells; host or cells: MCF7 breast cancer cells; details: 4 hours, plateau of the maximal effect, DMSO and fulvestrant define 0% and 100% change in ESR1, Table 1a
Outline: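 MCF7 cells in phenol red-free RPMI with 10% charcoal-stripped FBS were exposed 4 h at 37 °C to 10-point 1.8× dilutions (0.05–835 nM final, 0.84% DMSO); fulvestrant served as control. After fixation, ESR1 was immunostained (F10 mAb, Alexa488) with Hoechst nuclear masking, and nuclear ESR1 fluorescence was quantified by imaging.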

Row | ERalpha (WT) MCF7HCS (Sinf) [1] | ER-alpha MCF7HCS Sinf [2] [%] | SMILES
1 | −93 |  | C[C@@H]1Cc2oc3ccccc3c2[C@@H](c2c(F)cc(OCCN3CC(CF)C3)cc2F)N1CC(F)(F)CO [Example 170]
2 |  | −93.8 | C[C@@](F)(CO)CN1CCCc2c([nH]c3ccccc23)[C@H]1c1c(F)cc(OCCN2CC(CF)C2)cc1F [Example 117, (S)-3-((R)-1-(2,6-difluoro-4-(2-(3-(fluoromethyl)azetidin-1-yl)ethoxy)phenyl)-3,4,5,10-tetrahydroazepino[3,4-b]indol-2(1H)-yl)-2-fluoro-2-methylpropan-1-ol]
3 |  | −100 | C[C@@H]1Cn2c(cc3ccccc32)[C@@H](c2c(F)cc(NC3CN(CCCF)C3)cc2F)N1CC(F)(F)F [Example 146, N-(3,5-Difluoro-4-((1R,3R)-3-methyl-2-(2,2,2-trifluoroethyl)-1,2,3,4-tetrahydropyrazino[1,2-a]indol-1-yl)phenyl)-1-(3-fluoropropyl)azetidin-3-amine]
4 |  | −30 | C[C@H]1Cc2[nH]c3ccccc3c2[C@H](c2c(F)cc(NC3CN(CCCF)C3)cc2F)N1CC(F)(F)F [Example 153, N-(3,5-difluoro-4-((1R,3S)-3-methyl-2-(2,2,2-trifluoroethyl)-2,3,4,5-tetrahydro-1H-pyrido[4,3-b]indol-1-yl)-phenyl)-1-(3-fluoropropyl) azetidin-3-amine]
